Assay results from the supplement of paper PMC12463676, “Small-molecule dissolution of stress granules by redox modulation benefits ALS models” (Nature Chemical Biology, 2025).

Key:
lipoamide = compound: NC(=O)CCCCC1CCSS1 [lipoamide]; test: thermal stability z-score vs DMSO; higher = more thermally stabilized by treatment; settings: HeLa, lipoamide concentration 100 µM
Experimental: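 Cellular thermal proteome profiling in HeLa cells. Cells were treated with 100 µM lipoamide for 1 h, with or without 1 mM arsenate for a further 1 h, then heated to ten temperatures (37-66.3 °C), and soluble protein was quantified by TMT mass spectrometry relative to 0.1% DMSO controls. The thermal stability score (sum of log2 fold changes minus the abundance score) was transformed to a z-score; mean of n = 3 experiments.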

potassium arsenate = compound: O=[As]([O-])(O)O.[K+] [potassium arsenate]; test: as above; settings: HeLa; arsenate concentration 1 mM
Experimental: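 Cellular thermal proteome profiling in HeLa cells treated with 1 mM arsenate for 1 h (DMSO pretreatment), heated to ten temperatures (37-66.3 °C). Soluble protein was quantified by TMT mass spectrometry relative to DMSO controls; the thermal stability score was transformed to a z-score; mean of n = 3 experiments.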

[1] = arsenate co-treatment: 1 mM arsenate 1 h
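Note: each temperature applied for 3 min, abundance score taken as mean log2 fold change at the two lowest temperatures, z-score obtained by mean subtraction and division by SD.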

Chain of UniProt Q9UI09 (Q9UI09 whole entry): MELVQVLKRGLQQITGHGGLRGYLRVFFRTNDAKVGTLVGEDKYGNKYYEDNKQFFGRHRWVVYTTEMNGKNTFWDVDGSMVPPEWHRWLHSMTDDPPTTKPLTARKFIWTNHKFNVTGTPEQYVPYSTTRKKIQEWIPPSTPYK
Chain of UniProt Q10469 (Q10469 whole entry): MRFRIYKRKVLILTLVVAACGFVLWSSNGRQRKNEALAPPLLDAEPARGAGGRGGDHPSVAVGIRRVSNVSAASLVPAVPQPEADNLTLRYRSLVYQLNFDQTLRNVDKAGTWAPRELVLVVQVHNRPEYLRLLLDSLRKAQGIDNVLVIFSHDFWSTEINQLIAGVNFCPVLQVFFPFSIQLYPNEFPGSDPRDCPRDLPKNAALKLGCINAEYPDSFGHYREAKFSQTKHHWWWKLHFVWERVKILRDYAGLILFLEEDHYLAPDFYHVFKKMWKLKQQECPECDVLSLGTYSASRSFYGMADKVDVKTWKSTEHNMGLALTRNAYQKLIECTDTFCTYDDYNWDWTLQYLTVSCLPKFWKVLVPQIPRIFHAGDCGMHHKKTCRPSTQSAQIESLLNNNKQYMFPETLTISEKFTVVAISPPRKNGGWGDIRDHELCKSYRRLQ
Chain of UniProt Q7Z6B7 (Q7Z6B7 whole entry): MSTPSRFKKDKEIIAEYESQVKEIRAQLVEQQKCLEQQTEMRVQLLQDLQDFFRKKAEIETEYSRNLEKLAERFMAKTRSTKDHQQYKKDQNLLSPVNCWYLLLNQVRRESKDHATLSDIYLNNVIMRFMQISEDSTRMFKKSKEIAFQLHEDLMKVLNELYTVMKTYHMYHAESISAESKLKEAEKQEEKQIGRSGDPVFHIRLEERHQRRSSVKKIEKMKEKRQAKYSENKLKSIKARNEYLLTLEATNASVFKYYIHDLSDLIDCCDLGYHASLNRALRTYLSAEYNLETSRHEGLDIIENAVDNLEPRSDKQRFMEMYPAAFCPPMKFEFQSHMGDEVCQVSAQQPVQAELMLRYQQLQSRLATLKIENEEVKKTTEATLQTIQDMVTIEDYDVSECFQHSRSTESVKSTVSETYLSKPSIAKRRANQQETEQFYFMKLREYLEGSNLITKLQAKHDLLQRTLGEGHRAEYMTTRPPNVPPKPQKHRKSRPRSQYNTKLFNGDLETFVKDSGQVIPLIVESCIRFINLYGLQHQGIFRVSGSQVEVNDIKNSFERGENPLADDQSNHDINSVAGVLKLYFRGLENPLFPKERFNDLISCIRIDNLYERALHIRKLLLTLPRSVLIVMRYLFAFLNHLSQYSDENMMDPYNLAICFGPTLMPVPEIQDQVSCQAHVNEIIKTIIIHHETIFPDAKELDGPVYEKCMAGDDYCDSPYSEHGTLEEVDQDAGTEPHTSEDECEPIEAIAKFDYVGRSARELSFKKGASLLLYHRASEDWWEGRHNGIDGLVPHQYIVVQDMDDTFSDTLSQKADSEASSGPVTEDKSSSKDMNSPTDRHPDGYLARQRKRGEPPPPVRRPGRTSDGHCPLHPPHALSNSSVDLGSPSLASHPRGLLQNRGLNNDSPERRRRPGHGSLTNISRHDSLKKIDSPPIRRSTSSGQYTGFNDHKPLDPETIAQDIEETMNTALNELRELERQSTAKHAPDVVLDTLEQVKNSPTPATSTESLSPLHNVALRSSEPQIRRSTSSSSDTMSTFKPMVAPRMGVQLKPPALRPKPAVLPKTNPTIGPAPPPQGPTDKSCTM
Chain of UniProt Q6IQ49 (Q6IQ49 whole entry, looked up): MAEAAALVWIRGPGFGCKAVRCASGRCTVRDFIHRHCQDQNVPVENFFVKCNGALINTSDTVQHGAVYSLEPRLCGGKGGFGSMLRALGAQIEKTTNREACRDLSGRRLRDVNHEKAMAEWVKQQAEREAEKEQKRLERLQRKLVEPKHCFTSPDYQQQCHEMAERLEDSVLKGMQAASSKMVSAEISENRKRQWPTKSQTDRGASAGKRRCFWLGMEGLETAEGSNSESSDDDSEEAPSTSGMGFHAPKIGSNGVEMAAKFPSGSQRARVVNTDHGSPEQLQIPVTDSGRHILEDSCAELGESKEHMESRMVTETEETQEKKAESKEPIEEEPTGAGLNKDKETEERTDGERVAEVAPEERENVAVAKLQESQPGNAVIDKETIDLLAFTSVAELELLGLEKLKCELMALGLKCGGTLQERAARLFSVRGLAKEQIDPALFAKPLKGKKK
Chain of UniProt Q8IWA5 (Q8IWA5 whole entry): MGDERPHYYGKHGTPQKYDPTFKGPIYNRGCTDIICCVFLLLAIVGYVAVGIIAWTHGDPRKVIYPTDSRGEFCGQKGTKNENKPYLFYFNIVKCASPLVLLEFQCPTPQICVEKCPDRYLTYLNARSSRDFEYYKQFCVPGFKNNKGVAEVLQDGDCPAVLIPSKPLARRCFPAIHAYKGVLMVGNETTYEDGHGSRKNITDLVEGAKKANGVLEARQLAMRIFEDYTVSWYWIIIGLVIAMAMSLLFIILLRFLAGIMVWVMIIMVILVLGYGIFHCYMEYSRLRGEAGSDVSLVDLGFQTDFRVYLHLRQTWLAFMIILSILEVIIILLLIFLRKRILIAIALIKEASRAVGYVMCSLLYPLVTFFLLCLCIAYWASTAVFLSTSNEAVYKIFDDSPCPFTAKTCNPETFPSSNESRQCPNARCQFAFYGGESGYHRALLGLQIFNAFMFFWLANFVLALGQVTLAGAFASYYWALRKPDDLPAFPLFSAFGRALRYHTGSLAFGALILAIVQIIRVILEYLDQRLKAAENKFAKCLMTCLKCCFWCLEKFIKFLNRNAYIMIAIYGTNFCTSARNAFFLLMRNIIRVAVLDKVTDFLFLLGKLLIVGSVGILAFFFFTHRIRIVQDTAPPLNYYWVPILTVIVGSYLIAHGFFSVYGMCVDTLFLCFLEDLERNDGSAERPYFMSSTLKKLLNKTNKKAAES
Chain of UniProt P26572 (P26572 whole entry): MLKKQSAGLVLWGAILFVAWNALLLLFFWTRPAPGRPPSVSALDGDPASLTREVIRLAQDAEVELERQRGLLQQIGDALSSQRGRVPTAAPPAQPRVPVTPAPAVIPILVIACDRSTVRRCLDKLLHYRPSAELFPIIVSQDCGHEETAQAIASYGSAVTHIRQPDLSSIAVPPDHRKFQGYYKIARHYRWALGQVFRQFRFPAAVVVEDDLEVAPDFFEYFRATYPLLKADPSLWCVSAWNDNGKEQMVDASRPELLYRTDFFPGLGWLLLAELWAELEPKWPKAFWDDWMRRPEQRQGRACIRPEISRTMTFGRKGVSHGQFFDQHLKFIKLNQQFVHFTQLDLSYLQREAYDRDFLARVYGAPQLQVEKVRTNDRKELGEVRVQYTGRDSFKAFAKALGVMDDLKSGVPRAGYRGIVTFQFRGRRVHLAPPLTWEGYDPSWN
Chain of UniProt P62136 (P62136 whole entry): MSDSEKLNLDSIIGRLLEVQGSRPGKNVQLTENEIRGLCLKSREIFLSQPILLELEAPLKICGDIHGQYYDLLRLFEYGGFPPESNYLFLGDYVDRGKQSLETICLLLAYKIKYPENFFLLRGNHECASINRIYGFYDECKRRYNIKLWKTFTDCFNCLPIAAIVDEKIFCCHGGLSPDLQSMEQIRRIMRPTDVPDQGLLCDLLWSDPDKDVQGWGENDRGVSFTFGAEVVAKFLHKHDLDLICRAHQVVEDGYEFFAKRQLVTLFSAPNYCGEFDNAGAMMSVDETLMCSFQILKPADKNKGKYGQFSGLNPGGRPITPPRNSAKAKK
Chain of UniProt Q86VM9 (Q86VM9 whole entry): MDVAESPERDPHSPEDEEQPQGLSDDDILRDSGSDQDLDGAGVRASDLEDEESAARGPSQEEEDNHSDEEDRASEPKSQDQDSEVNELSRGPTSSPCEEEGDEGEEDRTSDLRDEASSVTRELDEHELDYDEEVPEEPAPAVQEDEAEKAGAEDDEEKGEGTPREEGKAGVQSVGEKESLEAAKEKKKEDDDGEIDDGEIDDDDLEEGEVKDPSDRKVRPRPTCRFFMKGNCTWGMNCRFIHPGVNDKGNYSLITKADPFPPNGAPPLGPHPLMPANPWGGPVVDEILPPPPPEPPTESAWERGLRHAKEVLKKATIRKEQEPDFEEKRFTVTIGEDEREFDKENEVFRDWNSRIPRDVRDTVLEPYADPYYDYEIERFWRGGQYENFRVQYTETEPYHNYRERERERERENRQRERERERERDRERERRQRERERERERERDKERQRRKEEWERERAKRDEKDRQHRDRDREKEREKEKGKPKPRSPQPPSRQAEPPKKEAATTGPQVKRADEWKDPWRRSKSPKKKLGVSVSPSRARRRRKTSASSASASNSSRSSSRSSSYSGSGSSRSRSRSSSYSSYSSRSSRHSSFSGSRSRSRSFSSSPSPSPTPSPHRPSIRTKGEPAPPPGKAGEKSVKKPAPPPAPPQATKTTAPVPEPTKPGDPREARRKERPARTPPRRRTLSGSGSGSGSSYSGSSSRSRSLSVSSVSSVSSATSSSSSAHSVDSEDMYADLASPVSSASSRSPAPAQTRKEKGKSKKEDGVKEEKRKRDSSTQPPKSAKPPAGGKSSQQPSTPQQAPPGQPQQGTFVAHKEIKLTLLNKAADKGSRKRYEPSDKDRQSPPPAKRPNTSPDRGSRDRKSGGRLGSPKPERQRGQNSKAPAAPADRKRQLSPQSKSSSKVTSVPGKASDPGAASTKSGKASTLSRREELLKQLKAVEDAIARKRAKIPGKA
Chain of UniProt Q16762 (Q16762 whole entry): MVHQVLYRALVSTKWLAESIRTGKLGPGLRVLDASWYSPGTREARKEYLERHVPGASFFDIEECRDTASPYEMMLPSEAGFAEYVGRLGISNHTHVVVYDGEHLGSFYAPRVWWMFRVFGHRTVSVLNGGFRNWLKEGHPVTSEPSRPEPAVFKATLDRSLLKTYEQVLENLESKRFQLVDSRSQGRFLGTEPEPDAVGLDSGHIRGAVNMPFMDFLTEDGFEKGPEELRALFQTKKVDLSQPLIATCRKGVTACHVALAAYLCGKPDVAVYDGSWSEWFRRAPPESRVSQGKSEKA

Row | Target | thermal stability z-score (lipoamide; [1]) | thermal stability z-score (lipoamide; arsenate co-treatment: none) | thermal stability z-score (potassium arsenate)
1 | ASNSD1 (UniProt Q9NWL6) | -0.942 | -0.0608 | -0.734
2 | DYNC2H1 (UniProt Q8NCM8) | -0.15 | -0.28 | -0.209
3 | NHSL1 (UniProt Q5SYE7) | 0.0509 | 0.218 | 0.0815
4 | SDE2 (UniProt Q6IQ49) | -0.399 | -0.282 | -1.16
5 | ANKFY1 (UniProt Q9P2R3) | 0.069 | 0.106 | 0.477
6 | EEF2 (UniProt P13639) | -0.0517 | 0.0227 | -0.39
7 | DDX56 (UniProt Q9NY93) | -0.847 | -0.217 | 0.917
8 | SRGAP1 (UniProt Q7Z6B7) | -0.0604 | -0.163 | -0.0461
9 | ARHGDIA (UniProt P52565) | 0.784 | 0.465 | 0.318
10 | KCTD9 (UniProt Q7L273) | 0.34 | 0.375 | -0.315
11 | PSMD13 (UniProt Q9UNM6) | -0.244 | 0.13 | -0.0407
12 | RFX1 (UniProt P22670) | 1.04 | 0.453 | 0.128
13 | CKB (UniProt P12277) | -0.249 | -0.245 | -1.02
14 | PPP1CA (UniProt P62136) | 0.221 | -0.27 | -0.971
15 | TST (UniProt Q16762) | 0.729 | -0.00911 | 1
16 | ZC3H18 (UniProt Q86VM9) | 1.11 | 0.987 | -1.11
17 | TMEM126A (UniProt Q9H061) | 0.676 | 0.815 | 0.231
18 | NDUFA12 (UniProt Q9UI09) | -0.0618 | 0.06 | 0.611
19 | GPN1 (UniProt Q9HCN4) | -0.0201 | -0.00238 | 0.212
20 | ANAPC5 (UniProt Q9UJX4) | 0.0562 | -0.0827 | -0.0639
21 | AKR1B1 (UniProt P15121) | 0.596 | 0.698 | 1.19
22 | MGAT2 (UniProt Q10469) | -0.206 | -0.0594 | 0.24
23 | C17ORF62 (UniProt Q9BQA9) | 0.898 | 0.761 | 1.37
24 | UPP1 (UniProt Q16831) | -0.122 | 0.244 | -0.16
25 | SLC44A2 (UniProt Q8IWA5) | -0.0733 | -0.171 | -0.517
26 | ALYREF (UniProt Q86V81) | 0.585 | 0.0941 | -0.0562
27 | GPRIN1 (UniProt Q7Z2K8) | 0.529 | -0.0428 | -0.256
28 | GMPS (UniProt P49915) | -0.853 | -0.447 | -0.42
29 | VPS13D (UniProt Q5THJ4) | 0.236 | 0.0716 | -0.13
30 | MGAT1 (UniProt P26572) | -0.313 | -0.685 | -0.0516
